Experimental data published in patent EP3964221A1, “ANTIVIRAL AGENTS” (priority 2020, dated 2022).
Like-named read-outs stand apart in the source and are kept apart here.

Assays:
Herpes simplex = settings: added to the assays after infection; cited from earlier work
[1] = system: Influenza A virus (Flu A, H1N1); assay: Curative approach, plaque reduction assay; type: cell-based
[2] = system: Respiratory Syncytial Virus (RSV, type long strain); assay: Curative approach, plaque reduction assay; type: cell-based; settings: active control at concentrations between 5-50 µg mL^-1
[3] = system: Rhinovirus (RV, subtype 14); assay: Curative approach, plaque reduction assay; type: cell-based; settings: active control at concentrations between 5-50 µg mL^-1
[4] = system: Rhinovirus (RV, subtype 14); assay: Virucidal (preventive) approach, pretreatment of cell-free virus, plaque forming units; type: cell-based; settings: positive control at 0.3%; 2 and 24 h incubation
[5] = system: Adenovirus C (AV, subtype 5); type: cell-based; settings: positive control at 0.3%
[6] = system: Influenza A virus (Flu A, H1N1); assay: Virucidal (preventive) approach, pretreatment of cell-free virus, plaque forming units; type: cell-based; settings: positive control at 0.3%; 2 and 24 h incubation
[7] = system: Respiratory Syncytial Virus (RSV, type long strain); assay: as above; type: cell-based; settings: positive control at 0.3%; 2 and 24 h incubation

In the case of `CC12CCC(CC1)C(C)(C)O2` [1,8-cineol], the “reduction of Herpes simplex induced plaques” value (“reduction” below) (Herpes simplex) is listed as 30-40%.

With `NC(=O)c1ncn([C@@H]2O[C@H](CO)[C@@H](O)[C@H]2O)n1` [Ribavirin, ribavirin] the “plaque formation (visual, Fig. 3)” value ([1]; active control) was “prevented plaque formation almost completely”, the inhibited plaque formation ([1]; active control at concentrations between 5-50 µg mL^-1) was 70-96% and the inhibited plaque formation [2] was 70-96%. The inhibited plaque formation [3] was 70-96%.

For `Nc1nc2c(ncn2COCCO)c(=O)[nH]1` [acyclovir], the “reduction” value (Herpes simplex) is given as 100%.

In the case of `C=C(C)[C@H]1CC=C(C)CC1` [limonene], the “reduction” value (Herpes simplex) is given as 10-20%.

In the case of `C=C1CCC2CC1C2(C)C` (stereo not drawn) [β-pinene], the “reduction” value (Herpes simplex) is given as 10-20%.

With `CCCCCCCCCCCCOS(=O)(=O)[O-].[Na+]` [SDS, Sodium dodecyl sulfate] the lowered infectivity [4] was 56-100%, the lowered infectivity ([5]; 2 h incubation) was 52% and the lowered infectivity ([5]; 24 h incubation) was 63%. For the same molecule, the lowered infectivity [6] was 56-100% and the lowered infectivity [7] was 56-100%.

For `CC1=CCC2CC1C2(C)C` (stereo not drawn) [α-pinene], the “reduction” value (Herpes simplex) is listed as 30-40%.
